Key:
[1] = target: T1, UBR4 E3 ubiquitin-protein ligase UBR4 (Homo sapiens, UniProt Q5T4S7); experiment: Cysteine liganding, probe competition; format: binding
T1 construct: Cells were resuspended in cold PBS on ice and sonicated with a probe sonicator to achieve lysis; endogenous in cells
How it was run: (§1)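 Lysates from probe-sonicated cells in PBS (5 mg/ml proteome) were exposed to compound for 1 hr at 25° C, then labelled with desthiobiotin iodoacetamide probe (10 mM stock) for 1 hr at 25° C. Probe-tagged peptides were streptavidin-enriched after trypsin digestion.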

[2] = target: T2, AKAP1 A-kinase anchor protein 1, mitochondrial (Homo sapiens, UniProt Q92667); experiment: Cysteine liganding, probe competition; format: binding
T2 construct: Cells were resuspended in cold PBS on ice and sonicated with a probe sonicator to achieve lysis; endogenous in cells
T2 sequence (Q92667 30-903): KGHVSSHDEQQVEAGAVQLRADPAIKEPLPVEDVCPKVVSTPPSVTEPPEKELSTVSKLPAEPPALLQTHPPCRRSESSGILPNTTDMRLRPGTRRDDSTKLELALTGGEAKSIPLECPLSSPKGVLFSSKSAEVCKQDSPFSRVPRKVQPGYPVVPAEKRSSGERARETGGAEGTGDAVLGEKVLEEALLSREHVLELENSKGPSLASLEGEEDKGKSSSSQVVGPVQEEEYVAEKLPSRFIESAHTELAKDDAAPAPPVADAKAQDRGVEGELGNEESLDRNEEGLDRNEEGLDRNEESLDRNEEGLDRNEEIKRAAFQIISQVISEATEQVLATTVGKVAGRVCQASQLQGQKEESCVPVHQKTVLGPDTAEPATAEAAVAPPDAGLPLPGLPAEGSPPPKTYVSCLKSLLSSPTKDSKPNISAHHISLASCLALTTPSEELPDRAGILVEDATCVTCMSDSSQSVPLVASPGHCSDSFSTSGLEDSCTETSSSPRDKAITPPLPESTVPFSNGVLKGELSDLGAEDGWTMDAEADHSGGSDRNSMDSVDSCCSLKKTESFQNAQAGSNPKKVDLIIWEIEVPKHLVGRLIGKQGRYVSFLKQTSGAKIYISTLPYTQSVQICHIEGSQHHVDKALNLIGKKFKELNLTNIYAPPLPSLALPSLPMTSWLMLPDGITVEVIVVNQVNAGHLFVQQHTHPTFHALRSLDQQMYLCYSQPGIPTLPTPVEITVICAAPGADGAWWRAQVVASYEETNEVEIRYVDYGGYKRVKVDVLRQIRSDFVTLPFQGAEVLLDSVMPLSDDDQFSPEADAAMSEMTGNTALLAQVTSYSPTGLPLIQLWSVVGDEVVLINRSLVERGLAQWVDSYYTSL
How it was run: as §1

T1 sequence (Q5T4S7 whole entry): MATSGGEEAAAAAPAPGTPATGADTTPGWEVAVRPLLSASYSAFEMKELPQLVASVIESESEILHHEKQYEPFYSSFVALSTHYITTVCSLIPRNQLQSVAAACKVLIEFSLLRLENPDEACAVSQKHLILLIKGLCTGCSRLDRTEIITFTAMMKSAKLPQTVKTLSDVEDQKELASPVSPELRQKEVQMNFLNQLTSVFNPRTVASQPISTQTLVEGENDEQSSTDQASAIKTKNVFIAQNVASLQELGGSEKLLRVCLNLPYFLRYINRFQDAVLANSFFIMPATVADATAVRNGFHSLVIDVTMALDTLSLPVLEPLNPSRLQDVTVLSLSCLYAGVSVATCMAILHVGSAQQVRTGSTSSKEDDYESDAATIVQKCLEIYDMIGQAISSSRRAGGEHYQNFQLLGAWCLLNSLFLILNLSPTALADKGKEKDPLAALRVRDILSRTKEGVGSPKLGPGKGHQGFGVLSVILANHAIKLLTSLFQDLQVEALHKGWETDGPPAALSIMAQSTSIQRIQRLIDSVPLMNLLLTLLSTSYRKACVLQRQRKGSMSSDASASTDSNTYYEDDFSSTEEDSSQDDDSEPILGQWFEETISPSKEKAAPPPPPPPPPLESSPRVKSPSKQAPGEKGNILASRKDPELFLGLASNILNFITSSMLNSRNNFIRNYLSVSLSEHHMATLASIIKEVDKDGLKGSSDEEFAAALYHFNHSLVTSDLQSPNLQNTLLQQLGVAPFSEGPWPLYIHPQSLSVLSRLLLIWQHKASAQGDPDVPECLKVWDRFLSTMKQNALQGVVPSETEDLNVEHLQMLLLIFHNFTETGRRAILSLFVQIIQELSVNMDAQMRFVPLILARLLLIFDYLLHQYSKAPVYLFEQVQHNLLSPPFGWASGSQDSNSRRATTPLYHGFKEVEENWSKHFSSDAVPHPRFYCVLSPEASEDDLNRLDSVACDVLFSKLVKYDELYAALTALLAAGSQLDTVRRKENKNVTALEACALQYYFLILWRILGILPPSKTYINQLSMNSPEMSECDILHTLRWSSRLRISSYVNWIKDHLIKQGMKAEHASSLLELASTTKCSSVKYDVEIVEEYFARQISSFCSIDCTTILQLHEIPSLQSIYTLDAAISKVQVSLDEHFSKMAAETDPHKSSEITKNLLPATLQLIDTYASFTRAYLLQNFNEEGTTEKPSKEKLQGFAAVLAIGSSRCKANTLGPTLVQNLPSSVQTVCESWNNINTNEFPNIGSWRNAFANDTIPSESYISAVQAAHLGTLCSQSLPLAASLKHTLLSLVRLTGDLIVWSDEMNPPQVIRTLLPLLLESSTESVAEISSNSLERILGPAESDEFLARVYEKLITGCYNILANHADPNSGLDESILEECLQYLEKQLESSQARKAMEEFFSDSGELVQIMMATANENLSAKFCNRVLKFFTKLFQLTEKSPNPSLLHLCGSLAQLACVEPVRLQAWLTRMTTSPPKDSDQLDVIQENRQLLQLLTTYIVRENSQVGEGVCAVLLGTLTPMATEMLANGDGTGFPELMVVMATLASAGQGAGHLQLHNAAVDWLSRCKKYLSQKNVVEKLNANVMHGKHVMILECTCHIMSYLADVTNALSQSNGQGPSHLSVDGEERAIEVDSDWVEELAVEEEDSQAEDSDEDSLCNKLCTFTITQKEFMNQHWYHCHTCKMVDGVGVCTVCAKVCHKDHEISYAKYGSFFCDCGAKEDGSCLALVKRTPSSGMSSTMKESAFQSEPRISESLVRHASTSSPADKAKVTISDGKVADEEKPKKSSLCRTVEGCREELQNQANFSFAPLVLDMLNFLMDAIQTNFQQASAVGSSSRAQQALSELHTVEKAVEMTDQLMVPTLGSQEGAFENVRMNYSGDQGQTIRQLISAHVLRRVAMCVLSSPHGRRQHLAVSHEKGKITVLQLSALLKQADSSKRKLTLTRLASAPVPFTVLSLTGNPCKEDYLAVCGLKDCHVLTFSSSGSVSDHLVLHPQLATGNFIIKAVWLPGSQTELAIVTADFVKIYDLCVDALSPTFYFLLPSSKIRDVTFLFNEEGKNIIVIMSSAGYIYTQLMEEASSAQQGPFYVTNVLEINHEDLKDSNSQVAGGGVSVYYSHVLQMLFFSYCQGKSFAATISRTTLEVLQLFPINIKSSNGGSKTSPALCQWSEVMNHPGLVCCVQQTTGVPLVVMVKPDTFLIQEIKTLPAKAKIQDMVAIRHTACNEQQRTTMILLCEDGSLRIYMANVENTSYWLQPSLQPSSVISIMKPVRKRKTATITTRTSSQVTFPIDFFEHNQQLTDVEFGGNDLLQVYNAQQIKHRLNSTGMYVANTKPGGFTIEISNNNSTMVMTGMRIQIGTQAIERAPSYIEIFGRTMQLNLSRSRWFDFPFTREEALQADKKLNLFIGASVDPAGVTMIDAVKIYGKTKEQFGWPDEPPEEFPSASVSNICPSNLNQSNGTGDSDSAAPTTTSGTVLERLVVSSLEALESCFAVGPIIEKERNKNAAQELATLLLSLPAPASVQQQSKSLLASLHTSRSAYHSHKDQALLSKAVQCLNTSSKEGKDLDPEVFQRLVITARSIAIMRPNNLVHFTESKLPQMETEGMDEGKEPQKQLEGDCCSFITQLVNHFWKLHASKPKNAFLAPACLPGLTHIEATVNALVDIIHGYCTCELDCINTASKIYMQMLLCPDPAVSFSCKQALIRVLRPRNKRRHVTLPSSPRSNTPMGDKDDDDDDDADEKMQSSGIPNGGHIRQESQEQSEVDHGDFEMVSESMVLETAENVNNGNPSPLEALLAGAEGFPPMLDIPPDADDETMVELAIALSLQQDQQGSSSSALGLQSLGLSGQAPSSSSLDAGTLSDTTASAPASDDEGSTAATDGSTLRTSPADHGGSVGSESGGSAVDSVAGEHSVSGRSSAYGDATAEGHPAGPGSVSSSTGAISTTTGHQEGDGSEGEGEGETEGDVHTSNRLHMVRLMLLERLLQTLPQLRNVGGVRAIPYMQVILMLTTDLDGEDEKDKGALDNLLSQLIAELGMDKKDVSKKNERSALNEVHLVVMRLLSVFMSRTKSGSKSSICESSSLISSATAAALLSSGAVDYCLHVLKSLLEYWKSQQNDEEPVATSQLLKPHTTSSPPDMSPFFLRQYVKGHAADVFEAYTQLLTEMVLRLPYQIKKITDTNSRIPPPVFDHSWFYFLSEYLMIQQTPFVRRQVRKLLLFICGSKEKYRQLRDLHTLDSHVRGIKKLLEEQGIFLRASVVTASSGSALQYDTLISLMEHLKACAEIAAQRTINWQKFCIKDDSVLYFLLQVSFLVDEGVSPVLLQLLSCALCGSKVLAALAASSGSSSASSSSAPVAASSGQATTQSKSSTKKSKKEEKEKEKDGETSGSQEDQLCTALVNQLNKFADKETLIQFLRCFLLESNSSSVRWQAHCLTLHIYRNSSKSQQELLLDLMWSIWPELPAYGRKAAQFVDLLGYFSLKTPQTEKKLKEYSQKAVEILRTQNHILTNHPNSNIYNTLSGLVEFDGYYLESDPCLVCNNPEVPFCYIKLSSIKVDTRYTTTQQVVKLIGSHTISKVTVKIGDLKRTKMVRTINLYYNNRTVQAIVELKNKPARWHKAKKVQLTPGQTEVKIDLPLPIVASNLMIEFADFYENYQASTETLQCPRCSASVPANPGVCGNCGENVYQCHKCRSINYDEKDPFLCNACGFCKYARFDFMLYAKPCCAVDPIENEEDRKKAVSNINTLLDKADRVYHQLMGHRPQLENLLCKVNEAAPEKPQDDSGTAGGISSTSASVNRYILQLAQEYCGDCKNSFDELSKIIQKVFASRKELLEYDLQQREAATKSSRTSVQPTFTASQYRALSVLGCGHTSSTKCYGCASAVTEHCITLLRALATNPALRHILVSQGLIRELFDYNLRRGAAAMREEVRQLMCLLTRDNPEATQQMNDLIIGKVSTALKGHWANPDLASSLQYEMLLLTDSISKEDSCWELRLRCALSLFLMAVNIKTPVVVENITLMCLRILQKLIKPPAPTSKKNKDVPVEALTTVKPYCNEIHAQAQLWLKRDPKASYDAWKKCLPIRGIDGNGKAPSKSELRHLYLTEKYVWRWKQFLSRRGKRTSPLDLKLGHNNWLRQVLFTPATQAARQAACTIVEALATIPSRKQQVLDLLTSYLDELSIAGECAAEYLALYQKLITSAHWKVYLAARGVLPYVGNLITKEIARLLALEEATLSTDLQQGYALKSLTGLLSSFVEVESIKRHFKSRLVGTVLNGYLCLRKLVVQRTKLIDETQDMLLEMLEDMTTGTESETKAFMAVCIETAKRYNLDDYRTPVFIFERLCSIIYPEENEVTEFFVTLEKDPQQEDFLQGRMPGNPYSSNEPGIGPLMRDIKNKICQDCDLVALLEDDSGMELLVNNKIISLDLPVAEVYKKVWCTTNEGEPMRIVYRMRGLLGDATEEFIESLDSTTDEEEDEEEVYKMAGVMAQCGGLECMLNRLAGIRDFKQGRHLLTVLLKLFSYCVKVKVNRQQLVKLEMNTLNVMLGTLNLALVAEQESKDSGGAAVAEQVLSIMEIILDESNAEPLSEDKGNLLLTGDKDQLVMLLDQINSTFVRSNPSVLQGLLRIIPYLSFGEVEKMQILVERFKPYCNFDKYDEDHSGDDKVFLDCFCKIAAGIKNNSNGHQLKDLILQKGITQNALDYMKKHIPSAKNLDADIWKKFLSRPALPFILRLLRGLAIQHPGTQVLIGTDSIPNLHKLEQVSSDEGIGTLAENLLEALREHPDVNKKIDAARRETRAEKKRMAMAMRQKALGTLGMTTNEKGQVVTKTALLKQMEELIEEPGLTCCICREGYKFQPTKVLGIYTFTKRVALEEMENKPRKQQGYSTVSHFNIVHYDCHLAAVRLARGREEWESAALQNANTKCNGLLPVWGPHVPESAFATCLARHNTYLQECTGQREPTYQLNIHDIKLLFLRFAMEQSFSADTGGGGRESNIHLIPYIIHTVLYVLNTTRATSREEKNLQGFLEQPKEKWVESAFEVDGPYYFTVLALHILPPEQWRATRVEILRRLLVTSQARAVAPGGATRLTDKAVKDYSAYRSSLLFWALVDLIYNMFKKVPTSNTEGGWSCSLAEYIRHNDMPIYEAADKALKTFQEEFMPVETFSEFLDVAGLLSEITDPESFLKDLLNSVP

SMILES	100 Max ([1]; uniprot Q5T4S7)	100 ave ([1]; uniprot Q5T4S7)	500 Max ([1]; uniprot Q5T4S7)	500 ave ([1]; uniprot Q5T4S7)	100 ave ([2]; uniprot Q92667)	500 Max ([2]; uniprot Q92667)	500 ave ([2]; uniprot Q92667)	100 Max ([2]; uniprot Q92667, in % (unit assumed))	Liganded ([1]; UBR4 Res# 4049, uniprot Q5T4S7)	Liganded ([2]; AKAP1 Res# 376, uniprot Q92667)
O=C(CCl)Nc1cc(C(F)(F)F)cc(C(F)(F)F)c1 [KBO3]	13.1	−4.9	49.5	29.3	−0.33	57.81	45.04	18.92		
COc1ccc2c(c1)CCCN2C(=O)CCl [KB02]									YES	YES
